Biological target: T1, SLC25A1 (mitochondrial citrate carrier) (Homo sapiens, UniProt P53007)
T1 construct: Histidine-tagged recombinant purified SLC25A1
Experiment: SPR (Biacore […], NTA chip, […] steady-state fit)
Assay type: binding

T1 sequence (P53007 14-311): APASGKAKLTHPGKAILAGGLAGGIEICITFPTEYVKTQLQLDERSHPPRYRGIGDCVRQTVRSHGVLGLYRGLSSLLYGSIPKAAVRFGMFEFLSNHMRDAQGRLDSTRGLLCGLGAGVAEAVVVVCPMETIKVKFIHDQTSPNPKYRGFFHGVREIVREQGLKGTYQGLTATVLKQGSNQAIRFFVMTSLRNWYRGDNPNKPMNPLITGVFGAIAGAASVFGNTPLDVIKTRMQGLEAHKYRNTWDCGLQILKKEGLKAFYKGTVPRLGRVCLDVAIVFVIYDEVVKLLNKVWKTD

Kd [µM] | SMILES
3.5 | O=C(O)c1ccccc1NS(=O)(=O)c1ccc(Cl)c([N+](=O)[O-])c1 [CTPI-2]
63.6 | O=C(O)c1ccc(Cl)c(S(=O)(=O)Nc2cccc([N+](=O)[O-])c2)c1 [CTPI-1]

Reference: paper PMC6030199, “The mitochondrial citrate carrier, SLC25A1, drives stemness and therapy resistance in non-small cell lung cancer” (Cell Death and Differentiation, 2018)
